Patent publication US11142530B2, “Deep-sea fungus-derived anthraquinone compound and use thereof in preparing anti-allergic drugs” (Third Institute of Oceanography, Ministry of Natural …, priority 2019, dated 2021)
Read-outs that look alike come from different tables or passages of the source.

Test system: RBL-2H3 cells
Assay: IgE-mediated RBL-2H3 cell degranulation model (β-hexosaminidase release), in vitro anti-allergic activity test
Format: cell-based
Conditions: for Degranulation efficiency (%): RBL-2H3 cells, anti-DNP-IgE sensitized, DNP-BSA stimulated
Text: Currently available mast cell lines are not suitable for in vitro subculturing, and thus it is difficult to obtain a large number of homogeneous cells for experimental research. The RBL-2H3 cell line is similar to mast cells in cell structure and degranulation mechanism, and more importantly, it is possible to realize a stable subculturing of the line. Thus, the RBL-2H3 cell line is usually used as an alternative model of mast cells in the studies on mast cell functions and further researches of allergic diseases.
In the present embodiment, an IgE-mediated RBL-2H3 cell model was employed to measure the degranulation efficiency of sensitized cells, followed by a calculation to obtain the inhibitory of the compound against the cell degranulation and to further obtain the anti-allergic activity of the compound.
This embodiment was conducted with the following four groups:
(1) negative control group (non-activated group);
(2) blank control group (DNP-BSA-activated group);
(3) positive control group (loratadine group); and
(4) compound group (the compound obtained in step (5) in Embodiment 1).
This embodiment was conducted as follows:
(1) Sensitizing the cells: The RBL-2H3 cells were collected with trypsinization, and added into 96-well plates, 100 μL in each well, followed by the addition of anti-DNP-IgE to a final concentration of 1 μg/mL to sensitize the cells, and incubated in an incubator overnight (37° C., 5% CO2).
(2) Pre-protection of the cells: In the negative control group, 5, μL of PBS and 95 μL of Tyrode's buffer solution were added to each sample. In the blank control group, 5 μL of DNP-BSA and 95 μL of Tyrode's buffer solution were added to each sample. In the positive control group, 5 μL of loratadine (of various concentrations) and 95 μL of Tyrode's buffer solution were added to each sample. In the compound group, 5 μL of the compound solution (in PBS, with a final concentration of 1.25, 0. 625, 0.3125, 0.15625, 0.078125, or 0.0390625 μg/mL) and 95 μL of Tyrode's buffer solution were added to each sample. After the addition of above reagents, 95 μL of the cells were then added to culture plates, and incubated for 1 hour.
(3) Stimulating the cells: In the negative control group, 5 μL of PBS was added to each sample. In the other three groups, 5 μL of DNP-BSA was added to a final concentration of 1 μg/mL to stimulate the RBL-2H3 cells, and incubated for 1 hour.
(4) Disintegration of the cells: The culture supernatants were collected, and then the Tyrode's buffer solution (containing 0.1% of Triton X-100) was added to the culture plates to disintegrate the cells so as to obtain lysate solutions.
(5) β-hexosaminidase activity measurement: The supernatants and the lysate solutions were added to 96-well plates for fluorescent assays, 25 μL in each well, followed by the addition of 100 μL of 1.2 mM 4-methylumbelliferyl-N-acetyl-β-d-glucosaminide to allow reaction at 37° C. for 30 minutes. Then the fluorescence (excitation wavelength: 360 nm, emission wavelength: 450 nm) of the solution in each well was measured using a microplate reader.
(6) Calculation of degranulation efficiency:
Degranulation efficiency was calculated through the following expression:
wherein, FS represent the fluorescence of supernatant, and FL represents the fluorescence of lysate solution.
(7) Calculation of inhibitory rate on allergy
Inhibitory rate was calculated with the following expression:
wherein DEB represents the degranulation efficiency of blank control group, DEC represents the degranulation efficiency of compound group and DEN represents the degranulation efficiency of negative control group.

[1] = Rattus norvegicus, RBL-2H3, read-out: Inhibitory rate (%)

COc1cc(O)cc2c1C(=O)c1c(cc3c(c1O)C1C=COC1O3)C2=O (stereo not drawn) [Compound]
inhibitory effect on mast cell degranulation (IgE-mediated RBL-2H3 cell model, result in words): strong inhibitory effect
Degranulation efficiency (%) (compound 0.0390625 μg/mL): 52.86%
Degranulation efficiency (%) (compound 0.078125 μg/mL): 48.53%
Degranulation efficiency (%) (compound 0.15625 μg/mL): 38.46%
Degranulation efficiency (%) (compound 0.3125 μg/mL): 35.61%
Degranulation efficiency (%) (compound 0.625 μg/mL): 24.46%
Degranulation efficiency (%) (compound 1.25 μg/mL): 14.29%
IC50 (Rattus norvegicus, RBL-2H3): 1.87 µM
inhibition at 0.0390625 µg/mL [1]: -15.2%
inhibition at 0.078125 µg/mL [1]: -3.38%
inhibition at 0.15625 µg/mL [1]: 24.2%
inhibition at 0.3125 µg/mL [1]: 32.1%
inhibition at 0.625 µg/mL [1]: 62.7%
inhibition at 1.25 µg/mL [1]: 90.6%

CCOC(=O)N1CCC(=C2c3ccc(Cl)cc3CCc3cccnc32)CC1 [loratadine, reference compound]
IC50 (Rattus norvegicus, concentration of the compound when the inhibitory rate is 50%, RBL-2H3 degranulation, read-out: IC50): 91.6 µM
